Assay results from patent US9447157B2, “Nitration shielding peptides and methods of use thereof” (Augusta University Research Institute, Inc., priority 2013, dated 2016).

Key:
PKG-1α [1] = assay: PKG activity in transfected HEK-293T cells; assay type: cell-based, human; settings: SIN-1 500 μM 30 min
Description: To determine the role of tyrosine 247 and tyrosine 425 in mediating the nitration dependent inhibition of PKG-1α kinase activity, Y247F- and Y425F-PKG-1α mutants were generated and expressed in HEK-293T cells. HEK-293T cells were transiently transfected with expression plasmids containing WT-, Y247F-, or Y425F-PKG-1α for 48 h. Cells were also treated or not with SIN-1 (500 μM, 30 min). Protein extracts were immunoprecipitated using an antibody raised against PKG-1α and the level of nitrated PKG-1α determined by probing the membranes with an antiserum raised against 3-NT. The blots were then stripped and re-probed for PKG-1α to normalize for the efficiency of the immunoprecipitation.
Measurement of PKG Catalytic Activity Total PKG activity was determined using a non-radioactive immunoassay in cell lysates, according to the manufacturer's directions. […]
After incubation for 30 min at 30° C. to allow the phosphorylation of the bound substrate, an HRP conjugated anti-phosphothreonine specific antibody was added to convert a chromogenic substrate to a colorimetric substrate that was subsequently read spectrophotometrically at 450 nm. The change in absorbance reflected the relative activity of PKG in the sample. […] The kinetic constants were determined using nonlinear regression (curve fit) analysis (GraphPad Prism Software Inc).

PKG-1α [2] = target: T1, PKG-1α (Homo sapiens, UniProt Q13976, Y247F); assay: [3H]cGMP binding assay; design: transfected with an expression plasmid containing a full length WT-PKG-1α cDNA; made in house; host or cells: HEK-293T (methods); the results paragraph b527 says PASMC; settings: SIN-1 500 μM 30 min
T1 sequence (Q13976 2-671 Y247F): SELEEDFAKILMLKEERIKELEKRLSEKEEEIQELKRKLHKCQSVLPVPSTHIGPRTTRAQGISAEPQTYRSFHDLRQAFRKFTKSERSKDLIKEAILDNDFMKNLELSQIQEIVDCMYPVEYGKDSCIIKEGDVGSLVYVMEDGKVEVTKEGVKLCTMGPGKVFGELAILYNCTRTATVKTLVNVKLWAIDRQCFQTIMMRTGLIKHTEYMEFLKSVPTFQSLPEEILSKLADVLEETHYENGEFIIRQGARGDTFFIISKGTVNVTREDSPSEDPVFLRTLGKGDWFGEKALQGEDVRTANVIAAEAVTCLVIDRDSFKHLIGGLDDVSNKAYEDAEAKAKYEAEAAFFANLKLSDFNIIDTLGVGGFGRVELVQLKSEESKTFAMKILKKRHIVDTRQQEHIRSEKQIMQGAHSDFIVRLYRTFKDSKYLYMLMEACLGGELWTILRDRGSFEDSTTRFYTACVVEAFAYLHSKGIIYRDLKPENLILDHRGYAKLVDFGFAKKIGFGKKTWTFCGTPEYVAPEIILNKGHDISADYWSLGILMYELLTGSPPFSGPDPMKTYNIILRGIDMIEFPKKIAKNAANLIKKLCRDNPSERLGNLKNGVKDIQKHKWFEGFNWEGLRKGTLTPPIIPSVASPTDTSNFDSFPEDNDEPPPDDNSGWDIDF
Description: HEK-293T cells were transiently transfected with either the WT-PKG-1α or the Y247FPKG-1α cDNA using Effectene transfection reagent (Qiagen), according to the manufacturer's instructions. Briefly, the cells were split the day before the transfection to low cell densities (25%) and were transfected 24 h later. After 48 h of transfection, the cells were incubated in DMEM serum free media containing 1% FBS and antibiotics for 4 h and then treated with or without SIN-1 (500 μM), for 30 min. This method produced an approximate 70% transfection efficiency of HEK-293T cells, as measured using green fluorescent protein vectors. […]
The batches of supernatant were pooled, and 2 μg of anti-PKG-1α antibody per mg of protein were added to the extract and rocked at 4° C. […] After 15 min of agitation at 4° C., the beads were pelleted by centrifugation, and the supernatant containing the PKG-1α protein was collected, quantified using Bradford reagent, and stored at −80° C.
To assay the binding of cGMP to WT- and Y247F-PKG-1α the enzymes were saturated with cGMP by incubating 50 μl aliquots of the diluted PKG constructs for 60 min at room temperature with 50 μl of [^3H]cGMP and 150 μl of cGMP-binding assay mixture (25 mM K2HPO4, 25 mM KH2PO4, 1 mM EDTA, pH 6.8, 2M NaCl, 200 μM 3-isobutyl-1-methylxanthine). […] The dissociation constant (Kd) values were determined using GraphPad Prism graphics.

Substance: 3-morpholinosydnonimine N-ethylcarbamide [SIN-1]
- cGMP dependent PKG activity, WT- and Y425F-PKG-1α cells (PKG-1α [1]; HEK-293T expressing WT- and Y425F-PKG-1α): attenuated
- cGMP-independent PKG activity (PKG-1α [1]; transfected HEK-293T): did not alter
- Maximal [3H]cGMP binding to Y247F-PKG-1α (PKG-1α [2]): but not to the Y247F-PKG-1α mutant
